The source of these data is US9096565B2, “Inhibitors of histone deacetylase” (MethylGene Inc., priority 2007, dated 2015).

The term IC50 denotes the midpoint of a concentration-inhibition curve. Read a low IC50 as greater potency in that assay.

This experiment deals with one or more of HDAC-4, HDAC-5, HDAC-6, HDAC-7, HDAC-8, HDAC-9, HDAC-10 and HDAC-11. As to the kind of experiment: Inhibition of histone deacetylase enzymatic activity (summary statement over isoforms). Particulars: Table 3, selected examples; HDAC isoform not given. The experiment is classed as biochemical. The essentials: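 HDAC enzyme mix with compound was preincubated 5 min at room temperature. Reaction was started at 37 °C with Boc-Lys(trifluoroacetyl)-AMC substrate and run 20-30 min. It was stopped with trypsin (1 mg/mL) plus a known HDAC inhibitor to release the fluorogenic AMC.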

On to `CN(C)c1ccc(-c2ccc(C(C(=O)NO)c3ccccc3)cc2)cn1` (stereo not shown) [Compound 5-58, 2-(4-(6-(dimethylamino)pyridin-3-yl)phenyl)-N-hydroxy-2-phenylacetamide], for which the IC50 is < 1 µM.
Turning to `O=C(NO)C(c1ccccc1)c1ccc(N2CCC(Cc3ccccc3)CC2)cc1` (stereo not shown) [Compound 5-51, 2-(4-(4-benzylpiperidin-1-yl)phenyl)-N-hydroxy-2-phenylacetamide], the IC50 is < 1 µM.
For `COc1ccc2sc(SC(C(=O)NO)c3ccccc3)nc2c1` (stereo not shown) [Compound 5-50, N-hydroxy-2-(5-methoxybenzo[d]thiazol-2-ylthio)-2-phenylacetamide], the IC50 was < 1 µM.
The molecule `Cc1ccc(OC(C(=O)NO)c2ccccc2)cc1` (stereo not shown) [Compound 2-15, N-hydroxy-2-phenyl-2-(p-tolyloxy)acetamide] gave an IC50 of 1 to 15 µM.
Then `COCCOc1cccc(C(C(=O)NO)c2ccccc2)c1` (stereo not shown) [Compound 3-27, N-hydroxy-2-(3-(2-methoxyethoxy)phenyl)-2-phenylacetamide], with 1 to 15 µM; and `O=C(NO)C(c1ccccc1)c1ccc(N2CCN(CC3CC3)CC2)cc1` (stereo not shown) [Compound 5-105, 2-(4-(4-(cyclopropylmethyl)piperazin-1-yl)phenyl)-N-hydroxy-2-phenylacetamide], with < 1 µM.
As for `CN(CCc1ccccc1)c1ccc(C(C(=O)NO)c2ccccc2)cc1` (stereo not shown) [Compound 6-40, N-hydroxy-2-(4-(methyl(phenethyl)amino)phenyl)-2-phenylacetamide], the IC50 is < 1 µM.
As for `O=C(NO)C(c1ccccc1)N1CC=C(c2c[nH]c3ccccc23)CC1` (stereo not shown) [Compound 5-7, 2-(4-(1H-indol-3-yl)-5,6-dihydropyridin-1(2H)-yl)-N-hydroxy-2-phenylacetamide], the IC50 is < 1 µM.
`O=C(NO)C(c1ccccc1)c1cccc(C#Cc2cccnc2)c1` (stereo not shown) [Compound 2-95, N-hydroxy-2-phenyl-2-(3-(pyridin-3-ylethynyl)phenyl)acetamide]: the IC50 is < 1 µM.
As to `O=C(NO)C(c1ccccc1)c1ccc(N2CCN(c3ccc(F)cc3)CC2)cc1` (stereo not shown) [Compound 3-84, 2-(4-(4-(4-fluorophenyl)piperazin-1-yl)phenyl)-N-hydroxy-2-phenylacetamide], the IC50 was < 1 µM.
`O=C(NO)C(c1ccccc1)c1ccc(N2CCN(C3CCCC3)CC2)cc1` (stereo not shown) [Compound 5-77, 2-(4-(4-cyclopentylpiperazin-1-yl)phenyl)-N-hydroxy-2-phenylacetamide]: the IC50 is < 1 µM.
Take `O=C(NO)C(c1ccccc1)n1ccc(-c2ccccc2)c1` (stereo not shown) [Compound 5-2, N-hydroxy-2-phenyl-2-(3-phenyl-1H-pyrrol-1-yl)acetamide]: the IC50 was < 1 µM.
Consider `CCN(CCOC)c1ccc(C(C(=O)NO)c2ccccc2)cc1` (stereo not shown) [Compound 6-46, 2-(4-(ethyl(2-methoxyethyl)amino)phenyl)-N-hydroxy-2-phenylacetamide], for which the IC50 was < 1 µM.
On to `CCN(CC)c1ccc(C(C(=O)NO)c2ccc3c(c2)CCO3)cc1` (stereo not shown) [Compound 5-82, 2-(4-(diethylamino)phenyl)-2-(2,3-dihydrobenzofuran-5-yl)-N-hydroxyacetamide], for which the IC50 is < 1 µM.
Regarding `Cc1cccc(C(C(=O)NO)c2ccc(N3CCOCC3)cc2)c1` (stereo not shown) [Compound 5-125, N-hydroxy-2-(4-morpholinophenyl)-2-m-tolylacetamide], the 50% inhibitory concentration (IC50) was < 1 µM.
`O=C(NO)C(c1ccccc1)c1nnc(Cc2c[nH]c3ccccc23)s1` (stereo not shown) [Compound 5-3, 2-(5-((1H-indol-3-yl)methyl)-1,3,4-thiadiazol-2-yl)-N-hydroxy-2-phenylacetamide]: the IC50 is < 1 µM.
`CN(C)c1ccc(C(C(=O)NO)c2ccc(-c3ccccc3)cc2)cc1` (stereo not shown) [Compound 1-40, 2-(biphenyl-4-yl)-2-(4-(dimethylamino)phenyl)-N-hydroxyacetamide]: the IC50 was < 1 µM.
Then `O=C(NO)C(c1ccccc1)c1ccc(OCc2ccccc2)cc1` (stereo not shown) [Compound 5-33, 2-(4-(benzyloxy)phenyl)-N-hydroxy-2-phenylacetamide], with < 1 µM; and `O=C(NO)C(c1ccccc1)c1cccc(OCCCc2ccccc2)c1` (stereo not shown) [Compound 3-36, N-hydroxy-2-phenyl-2-(3-(3-phenylpropoxy)phenyl)acetamide], with < 1 µM; and `O=C(NO)C(c1ccccc1)c1ccc(N2CCN(S(=O)(=O)c3ccccc3)CC2)cc1` (stereo not shown) [Compound 5-97, N-hydroxy-2-phenyl-2-(4-(4-(phenylsulfonyl)piperazin-1-yl)phenyl)acetamide], with < 1 µM.
Then `CC(C)Nc1ccc(C(C(=O)NO)c2ccccc2)cc1` (stereo not shown) [Compound 3-79, N-hydroxy-2-(4-(isopropylamino)phenyl)-2-phenylacetamide], with < 1 µM.
Then `Cc1ccc(OC(C(=O)NO)c2ccccc2)c(Cl)c1` (stereo not shown) [Compound 7-20, 2-(2-chloro-4-methylphenoxy)-N-hydroxy-2-phenylacetamide], with 1 to 15 µM.
As for `O=C(NO)C(Sc1ccccc1)c1ccc(-c2ccncc2)cc1` (stereo not shown) [Compound 5-116, N-hydroxy-2-(phenylthio)-2-(4-(pyridin-4-yl)phenyl)acetamide], the IC50 was < 1 µM.
As to `O=C(NO)C(c1ccc(F)cc1)c1cccc(-c2ccccc2)c1` (stereo not shown) [Compound 5-89, 2-(biphenyl-3-yl)-2-(4-fluorophenyl)-N-hydroxyacetamide], the IC50 was < 1 µM.
As to `O=C(NO)C(c1ccccc1)c1ccc(OCc2cccc(Cl)c2)cc1` (stereo not shown) [Compound 3-66, 2-(4-(3-chlorobenzyloxy)phenyl)-N-hydroxy-2-phenylacetamide], the IC50 was < 1 µM.
The molecule `CCCC(=O)ONC(=O)C(c1ccccc1)c1ccc(N2CCOCC2)cc1` (stereo not shown) [Compound 5-128, N-(butyryloxy)-2-(4-morpholinophenyl)-2-phenylacetamide] gave a 50% inhibitory concentration (IC50) of 1 to 15 µM.
`CCCCOc1ccc(C(C(=O)NO)c2ccccc2)cc1` (stereo not shown) [Compound 2-10, 2-(4-butoxyphenyl)-N-hydroxy-2-phenylacetamide] came in with an IC50 of 1 to 15 µM.
Then `O=C(NO)C(c1ccccc1)c1ccc(-c2cccc3ccccc23)cc1` (stereo not shown) [Compound 5-13, N-hydroxy-2-(4-(naphthalen-1-yl)phenyl)-2-phenylacetamide], with < 1 µM.
As for `COc1ccccc1COc1ccc(C(C(=O)NO)c2ccccc2)cc1` (stereo not shown) [Compound 5-109, N-hydroxy-2-(4-(2-methoxybenzyloxy)phenyl)-2-phenylacetamide], the half-inhibitory concentration (IC50) is < 1 µM.
Regarding `O=C(NO)C(c1ccccc1)n1cccc1` (stereo not shown) [Compound 1-13, N-hydroxy-2-phenyl-2-(1H-pyrrol-1-yl)acetamide], the IC50 lay within 1 to 15 µM.
Turning to `O=C(NO)C(Oc1ccc2c(c1)CCC2)c1ccccc1` (stereo not shown) [Compound 2-16, 2-(2,3-dihydro-1H-inden-5-yloxy)-N-hydroxy-2-phenylacetamide], the IC50 lay within 1 to 15 µM.
`O=C(NO)C(Sc1ccccc1)c1ccccc1` (stereo not shown) [Compound 1-12, N-hydroxy-2-phenyl-2-(phenylthio)acetamide]: the IC50 was < 1 µM.
Regarding `O=C(NO)C(c1ccccc1)N1CCN(c2ccccc2)CC1` (stereo not shown) [Compound 1-16, N-hydroxy-2-phenyl-2-(4-phenylpiperazin-1-yl)acetamide], the IC50 was < 1 µM.
`O=C(NO)C(c1ccccc1)N1Cc2ccccc2C1` (stereo not shown) [Compound 1-22, N-hydroxy-2-(isoindolin-2-yl)-2-phenylacetamide] had an IC50 of 1 to 15 µM.
